Assay results as given in patent US11077092B2, “Methods of treating diabetes by administering a glucagon receptor antagonist in combination with a cholesterol absorption inhibitor” (Merck Sharp & Dohme Corp., priority 2012, dated 2021).
Blank lines part the entries; values can stand above or below the compound they belong to.

Columns and labels:
hGCGR mice [1] = assay: Combination treatment of GRAs with ezetimibe in hGCGR mice (Example 9); type: in vivo; conditions: for plasma total cholesterol: GRA alone 30 mpk QD for 9 days
Source text: FIGS. 15A-B illustrate total plasma cholesterol (FIG. 15A) and cholesterol absorption (FIG. 15B) upon sub-chronic treatment of hGCGR mice with vehicle. GRA Compound A (30 mpk), ezetimibe (10 mpk), or Compound A (30 mpk)+ezetimibe (10 mpk) QD for 9 days.
FIGS. 16A-B illustrate total plasma cholesterol (FIG. 16A) and cholesterol absorption (FIG. 16B) upon sub-chronic treatment of hGCGR mice with vehicle, GRA Compound D (30 mpk), Compound E (30 mpk), Compound D (30 mpk)+ezetimibe (10 mpk), or Compound E (30 mpk)+ezetimibe (10 mpk) QD for 9 days.
A similar protocol was deployed in this part of work except ezetimibe was added to the combination treatment groups. Briefly, male hGCGR mice at ˜12 wks of age were treated with vehicle, ezetimibe@10 mpk, Compound A@30 mpk, Compound D@30 mpk, Compound E@30 mpk, Compound A@30 mpk+ezetimibe@10 mpk, Compound D@30 mpk+ezetimibe@10 mpk, Compound E@30 mpk+ezetimibe@10 mpk. Plasma total cholesterol, phytosterol, cholesterol absorption, and cholesterol synthesis were quantified using the same assays as described before.

hGCGR mice [2] = assay: hGCGR mice, 5 day treatment with GRA Compound A and positive control LXR agonist (Example 2): plasma total cholesterol and LDL-c; type: in vivo; conditions: comparing with vehicle
Source text: FIG. 6 illustrates plasma levels of total cholesterol and LDL-c in hGCGR mice following a 5 day treatment with GRA Compound A and positive control LXR agonist.
It is important to note that lipoprotein profiles of mouse and human are fundamentally different. In mice, the major lipoproteins are in HDL while in humans the main lipoproteins are in LDL-c. In preclinical studies, hGCGR mice were used as the model for in vivo study. Plasma level of total cholesterol was used as a more reliable parameter to indicate the effect of GRAS on cholesterol metabolism.

hGCGR mice [3] = assay: Dual tracer study for cholesterol absorption in hGCGR mice (Example 4); type: in vivo; conditions: 30 mpk QD for 9 days
Protocol: Male hGCGR mice at ˜12 wks of age maintained on chow or high cholesterol diet (n=8 group) were treated with vehicle and GRA Compound A@30 mpk QD for 9 days. Twenty four-hour feces before treatment and 3 days after treated were collected for fecal cholesterol characterization. On Day 4, mice were dosed with vehicle (0.5% MC, BID) or Compound A followed by administration with D6-cholesterol@15 mpk through p.o. and 13C-cholesterol@15 mpk through i.v. Blood was collected at 4, 24, 48, 72, and 96 h post injection by tail bleeding. For cholesterol synthesis, D2O was administered i.p. at 20 ml/kg on Day 7. On day 8, tail blood was collected for PK and mice were taken down for blood and liver collection. Plasma was isolated from blood by centrifuge at 8000 rpm for 5 min and submitted for GC/MS assay for cholesterol synthesis and absorption. Feces were sent to Taconic for fecal cholesterol assay. Asterisks denote statistical significance between treatment and vehicle groups. * p<0.05, **p<0.01, and ***p<0.001 by ANOVA.

hGCGR mice [4] = assay: Sub-chronic treatment of hGCGR mice with GRA (Example 1): plasma total cholesterol, phytosterols, lathosterol, cholesterol synthesis; type: in vivo; conditions: 30 mpk QD for 5 days, vs vehicle
Protocol: Male hGCGR mice (Transgenic Research, 8:295-302, 1999) at ˜12 wks of age maintained on chow diet were treated with vehicle and GRA Compounds A, B, and C at 30 mpk QD for 5 days (n=8). On Day 1, mice were administered the compounds followed by glucagon-induced glucose tolerance test. On Day 5, mice were fasted at 7:30 am. After dosing at ˜9:00 am, the blood glucose was measured at 2-h post dose with a glucometer; see FIG. 1. At 6-h post dose, the tail blood was collected for PK measurement. Mice were euthanized with CO2, and blood was collected by cardiac puncture. The liver was snap frozen in liquid nitrogen with a freezing clamp and saved in −80° C. Plasma was isolated by centrifuging the blood at 8000 rpm for 5 min. The plasma level of total cholesterol was measured by biochemical assay (Wako Chemicals Inc.). The plasma level of lathosterol and phytosterol was measured by LC/MS. To determine cholesterol synthesis. D2O was administered i.p. at 20 ml/kg on 24 h prior to takedown of the mice. The level of D2 in plasma water and plasma cholesterol was assayed by GC/MS for cholesterol synthesis. Asterisks denote statistical significance between treatment and vehicle groups.

hGCGR mice [5] = assay: Sub-chronic study of Compound D in hGCGR mice: glucagon-induced glucose tolerance test and plasma phytosterols (Example 5); type: in vivo; conditions: 3 and 10 mpk, Day 1
Protocol: Male wild type and hGCGR mice on chow diet were treated with vehicle or GRA Compound D@3 and 10 mpk. On Day 1, mice were administered vehicle or Compound D followed by a glucagon-induced glucose tolerance test. On Day 5, mice were fasted at 7:30 am. After dosing at ˜9:00 am, blood glucose was measured at 2-h post dose with a glucometer. At 6-h post dose, tail blood was collected for a PK measurement. Mice were euthanized with CO2, and blood was collected by cardiac puncture. The liver was snap frozen in liquid nitrogen with a freezing clamp and saved in −80° C.
Plasma was isolated by centrifuging the blood at 8000 rpm for 5 min. Plasma level of total cholesterol was measured by an enzymatic colorimetric method (Wako Chemicals Inc.). Plasma levels of lathosterol and Phytosterol was measured by LC/MS.

type 2 diabetic patients = type: in vivo, human
Protocol: In phase 2b trial studies of Compound D, the average plasma levels of LDL-c in the placebo, Compound D@20, 40, 60, 80 mg, and metformin@2 g groups were 112.3, 117.7, 117.3, 110.0, 111.9, and 113.8 mg/dl at baseline, respectively. Plasma levels of LDL-c of the majority of the patients were within the normal range (≤130 mg/dl) according to the guideline of the American Heart Association and Mayo Clinic. After 12-week treatment, the average plasma levels of LDL-c were 105.4, 117.7, 123.2, 119.7, 126.6, and 111.1 mg/dl, respectively.
The following table illustrates the plasma levels of LDL-c in the patients in the phase 2b trial of Compound D. Type 2 diabetic patients with fasting glucose level of 140 to 240 mg/dl were recruited to the phase 2b trial of Compound D. After a 6-wk washout of any previous anti-hyperglycemic agents, patients were treated with placebo, Compound D QD@20, 40, 60, and 80 mg, and metformin BID@1 g for 12 wks. Values in bold are the percentage of patients on Day-1 and wk 12 less than or equal to the designated cutoff values at 130, 110, 100, and 70 mg/dl.
The baseline plasma level of LDL-c (Day -1) was plotted with the % change of LDL-c at week 12 from baseline.
In the 46 patients on Compound D@60 mg in the phase 2b trial, 14 patients were on statins during the 12-wk trial. […] LDL-c (despite the presence of the statin); see FIG. 17.

[6] = ezetimibe 10 mpk combined with Compound A, D or E 30 mpk, QD for 9 days

Structure (SMILES): COc1ccc2cc(-c3cc(-c4cc(Cl)cc(Cl)c4)nn3[C@@H](C)c3ccc(C(=O)NCCC(=O)O)cc3)ccc2c1 [Compound D, N-(4-{(1S)-1-[3-(3,5-dichlorophenyl)-5-(6-methoxy-2-naphthyl)-1H-pyrazol-1-yl]ethyl}benzoyl)-β-alanine]
- plasma total cholesterol (hGCGR mice [1]): significantly increased or tended to increase
- glucagon-induced glucose excursion (hGCGR mice [5]): suppressed
- blood glucose levels (type 2 diabetic patients; 60 mg, 12-wk trial, in most patients): substantial reduction

Structure (SMILES): CCC[C@H](c1ccc(C(=O)NCCC(=O)O)cc1)[C@H](c1ccc(Cl)cc1)c1c[nH]c2c(F)cc(C)cc12 [Compound E, N-(4-{(1S)-1-[(R)-(4-chlorophenyl)(7-fluoro-5-methyl-1H-indol-3-yl)methyl]butyl}benzoyl)-β-alanine]
- plasma total cholesterol (hGCGR mice [1]): significantly increased or tended to increase

Structure (SMILES): O=S(=O)(c1ccccc1)N(CC(F)(F)F)c1ccc(C(O)(C(F)(F)F)C(F)(F)F)cc1 [Compound T, reference compound]
- plasma level of LDL-c (hGCGR mice [2]): significantly increased
- plasma level of total cholesterol (hGCGR mice [2]): significantly increased

Structure (SMILES): O=C1[C@H](CC[C@H](O)c2ccc(F)cc2)[C@@H](c2ccc(O)cc2)N1c1ccc(F)cc1 [ezetimibe, reference compound]
- induction of cholesterol absorption caused by GRAs (hGCGR mice [1]; [6]): prevented the induction
- induction of total cholesterol caused by GRAs (hGCGR mice [1]; [6]): prevented the induction

The next lines start with results.

- plasma level of LDL-c (hGCGR mice [2]): significantly increased
- plasma level of total cholesterol (hGCGR mice [2]): significantly increased
- plasma total cholesterol (hGCGR mice [3]): significantly increased
- plasma total cholesterol (hGCGR mice [4]): induced
Structure (SMILES): COc1ccc2cc(-c3cc(-c4cc(C(F)(F)F)ccc4F)nn3[C@@H](C)c3ccc(C(=O)NCCC(=O)O)cc3)ccc2c1 [Compound A]
- plasma total cholesterol (hGCGR mice [1]): significantly increased or tended to increase

- plasma total cholesterol (hGCGR mice [4]): induced
Structure (SMILES): Cc1cc(OC(CCC(F)(F)F)c2ccc(C(=O)NCCC(=O)O)cc2)cc(C)c1-c1ccc(C(C)(C)C)cc1 (stereo not shown) [Compound B, 3-{4-[1-(4′-tert-butyl-2,6-dimethyl-biphenyl-4-yloxy)-4,4,4-trifluoro-butyl]-benzoylamino}-propionic acid]

- plasma total cholesterol (hGCGR mice [4]): induced
Structure (SMILES): Cc1cc(OC(CCC(C)(C)C)c2ccc(C(=O)NCCC(=O)O)cc2)cc(C)c1-c1ccc(C(F)(F)F)cc1 (stereo not shown) [Compound C, 3-{4-[1-(2,6-Dimethyl-4′-trifluoromethyl-biphenyl-4-yloxy)-4,4-dimethyl-pentyl]-benzoylamino}-propionic acid]

- average plasma level of LDL-c (type 2 diabetic patients; human, in vivo): 113.8 mg/dL
- increase of LDL-c after 12-week treatment (type 2 diabetic patients; human, in vivo): 2.2%
- percentage of patients with plasma LDL-c less than or equal to 110 mg/dl (type 2 diabetic patients; human, in vivo): 54.2 percentage
- percentage of patients with plasma LDL-c less than or equal to 130 mg/dl (type 2 diabetic patients; human, in vivo): 70.8 percentage
Structure (SMILES): CN(C)C(=N)N=C(N)N [Metformin, metformin, reference compound]
